From PubChem BioAssay (NCI)
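1) Cells in 96-well plates. 2) Compound, 48 h, 5 concentrations. 3) Linear interpolation between surrounding doses. 4) Unreached endpoint = highest concentration. The concentration for 50% growth inhibition is given as GI50. TGI: concentration producing complete growth inhibition.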

Tests used:
Assay in all cases: inhibition of tumour cell growth, NCI panel, 48 h
[1] = test system: DU-145 prostate
[2] = test system: HT29 colon
[3] = test system: SF-268 CNS
[4] = test system: SK-MEL-2 melanoma
[5] = test system: OVCAR-5 ovarian
[6] = test system: OVCAR-4 ovarian
[7] = test system: 786-0 renal
[8] = test system: NCI/ADR-RES ovarian
[9] = test system: UACC-257 melanoma
[10] = test system: NCI-H226 lung

SMILES	GI50 [1] [µM]	TGI [1] [µM]	GI50 [2] [µM]	TGI [2] [µM]	GI50 [3] [µM]	TGI [3] [µM]	GI50 [4] [µM]	TGI [4] [µM]	GI50 [5] [µM]	TGI [5] [µM]	GI50 [6] [µM]	TGI [6] [µM]	GI50 [7] [µM]	TGI [7] [µM]	GI50 [8] [µM]	TGI [8] [µM]	GI50 [9] [µM]	TGI [9] [µM]	GI50 [10] [µM]	TGI [10] [µM]
COc1c(C(N)=O)cc(-c2ccc(Cl)cc2)cc1-c1ccc(S(N)(=O)=O)cc1	9.29	> 25	11	> 25	8.81	> 25	7.89	21	15	> 25	10.6	> 25	12.5	> 25	> 17.5	> 25	8.72	> 25	9.52	> 25
CC(C)[C@@H](C(=O)O[C@@H]1/C=C/C(=O)O[C@@H](C)CCC/C=C/[C@@H]2C[C@H](O)C[C@H]21)N(C)C	29.4	> 100	5.16	27.3	7.33	> 45	23.1	> 68.3	35.9	> 100	9.09	> 61.9	9.9	52.3	24.6	> 93.6	20.8	> 81.9	9.21	36.4
COC(=O)Nc1nc2ccc(C(=O)c3cccc(I)c3)cc2[nH]1	0.0861	1.76	0.0375	26	0.18	17.5	1.26	> 72.3	0.173	17	0.818	15.3	0.0848	6.15	0.0448	1.54	15.1	> 100	0.259	25.4
CCN1CCN(C(=O)[C@]23CC[C@@H](C)[C@H](C)[C@@H]2C2=CC[C@@H]4[C@@]5(C)CCC(=O)C(C)(C)[C@@H]5CC[C@@]4(C)[C@]2(C)CC3)CC1	1.67	5.62	0.913	2.05	1.77	6.49	1.29	3.33	0.907	1.87	1.26	4.74	0.814	1.7	1.08	3.24	0.985	2.19	1.78	7.01
COc1ccc(C(=O)/C=C/c2ccc(OCc3cccc(C(F)(F)F)c3)c(OC)c2)cc1OC	72.6	> 1000	52.1	> 1000	76.6	> 1000	187	> 1000	292	> 1000	51.7	> 1000	67.3	> 1000	42.1	> 1000	613	> 1000	83.1	> 1000
Cc1ccc2ccccc2c1CSc1nc(N)nc2c1ncn2CC(C)C	–	> 100	–	> 100	–	> 100	–	> 73.9	–	> 100	–	> 100	–	> 100	–	> 100	–	> 87.3	–	72.7
CCCCCCCCN(CCCCCCCC)CC(O)c1cc(-c2ccccc2)nc2ccc(OC)cc12 (stereo not given)	37	> 100	18.3	> 100	28.7	> 100	50.3	> 100	> 100	> 100	51	> 100	> 100	> 100	16.3	> 100	> 100	> 100	> 100	> 100
Cc1nnc(N/N=C/c2ccc([N+](=O)[O-])o2)[nH]c1=O	2.1	> 100	3.63	> 100	0.521	> 57.9	3.14	> 48.8	2.98	> 100	3.36	> 100	0.649	15.3	1.75	> 100	0.0512	5.26	1.46	25.4
COc1nn(C)cc1Nc1nccc(-c2c[nH]c3c(NC(=O)[C@@H](C)N4CCN(C)CC4)cccc23)n1	62.8	> 100	29.4	> 100	36	> 100	25	74.5	42.5	> 100	47.9	> 100	28.8	> 100	61.9	> 100	27.7	78.7	14.3	> 100
CCC(=O)OCOc1ccc(/C=C2\CCC(CN(C)C)C2=O)cc1 (stereo not given)	–	30.6	–	25.7	–	22.5	–	27.9	–	31.6	–	15.3	–	6.2	–	6.78	–	10.6	–	31.8
COC(=O)CC[C@@H](C)[C@H]1CC[C@H]2[C@@H]3CC[C@@H]4C[C@H](O)CC[C@]4(C)[C@H]3CC[C@]12C	–	32.6	–	31.9	–	43.2	–	34.2	–	35.6	–	36.5	–	33.8	–	43.6	–	29.5	–	36.6
CC1=CC(C)=N/C(=N/S(=O)(=O)c2cc(C)c(Cl)cc2SCc2ccccc2)NN1	> 100	> 100	> 100	> 100	78.1	> 100	> 100	> 100	> 100	> 100	79.1	> 100	> 100	> 100	> 100	> 100	> 100	> 100	> 100	> 100
COc1cc2c(cc1OC)C(Cl)C(c1ccc(Br)cc1)=C2Cl (stereo not given)	–	23.8	–	28.5	–	29.4	–	22.5	–	31	–	63.5	–	16.7	–	30.9	–	31.6	–	> 55.1
CC1=C(CCC(C)CO)O[C@H]2C[C@H]3[C@@H]4CC[C@H]5C[C@@H](O)CC[C@]5(C)[C@H]4CC(=O)[C@]3(C)[C@@H]12 (stereo not given in full)	–	55.1	–	71.8	–	57.6	–	30.6	–	71.1	–	> 82.2	–	52.4	–	40.6	–	36.6	–	> 82.2
